Test results taken from the OligoGym collection.
Bases are written 5' to 3'; sugars and linkages follow in the same order, as letters with counts (s phosphorothioate, o phosphodiester; PS: all linkages phosphorothioate). C may stand for cytosine or 5-methylcytosine; the collection does not tell. l = locked nucleic acid (LNA); d = 2'-deoxy (DNA)

biological target: HIF1A; assay: HeLa, 100 nM transfected, 24 h, mean of 3; conditions: ASO

Row | Sequence | caspase activation (% of PBS control)
1 | TGGCAAGCATCCTGTA (sugars ldllldddddddlldl, PS) | 440
2 | TGGCAAGCATCCTGTA (sugars llddlddddddllddl, PS) | 385
3 | GGCAAGCATCCTG (sugars l2 d9 l2, PS) | 554
4 | TGGCAAGCATCCTGTA (sugars ldlddddddddldlll, PS) | 195
5 | GCAAGCATCCTGT (sugars l1 d9 l1 d1 l1, PS) | 124
6 | GTTACTGCCTTCTTAC (sugars ldddlddddddllddl, PS) | 125
7 | TGGCAAGCATCCTGTA (sugars lldllddddddldlll, PS) | 438
8 | GTTACTGCCTTCT (sugars l1 d1 l1 d7 l3, PS) | 170
9 | GTTACTGCCTTCTTAC (sugars lddllddddddlddll, PS) | 218
10 | TACTGCCTTCTTA (sugars l1 d1 l1 d8 l2, PS) | 277
11 | GCAAGCATCCTGT (sugars l4 d8 l1, PS) | 344
12 | TGGCAAGCATCCTGTA (sugars lddllddddddldddl, PS) | 361
13 | GTTACTGCCTTCTTAC (sugars l5 d8 l1 d1 l1, PS) | 457
14 | TACTGCCTTCTTA (sugars l1 d2 l1 d8 l1, PS) | 118
15 | GGCAAGCATCCTG (sugars ldllddddddldl, PS) | 370
16 | TGGCAAGCATCCTGTA (sugars ldldlddddddlllll, PS) | 342
17 | TGGCAAGCATCCTGTA (sugars l3 d9 l4, PS) | 582
18 | GCAAGCATCCTGT (sugars l2 d8 l1 d1 l1, PS) | 281
19 | TGGCAAGCATCCTGTA (sugars l5 d7 l2 d1 l1, PS) | 381
20 | CAAGCATCCTGTA (sugars l1 d1 l1 d8 l2, PS) | 171
21 | TGGCAAGCATCCT (sugars l1 d1 l1 d7 l3, PS) | 127
22 | TGGCAAGCATCCTGTA (sugars lddlldddddddlddl, PS) | 461
23 | GCAAGCATCCTGT (sugars l1 d2 l1 d7 l2, PS) | 151
24 | GTTACTGCCTTCTTAC (sugars l1 d1 l3 d9 l2, PS) | 292
25 | GTTACTGCCTTCTTAC (sugars l2 d1 l2 d9 l2, PS) | 161
26 | TTACTGCCTTCTT (sugars ldllddddddldl, PS) | 181

Row | Sequence | caspase activation (% of PBS control)
27 | TGGCAAGCATCCTGTA (sugars l3 d9 l1 d2 l1, PS) | 210
28 | GTTACTGCCTTCTTAC (sugars lddllddddddllddl, PS) | 268
29 | GTTACTGCCTTCT (sugars l3 d9 l1, PS) | 138
30 | GTTACTGCCTTCTTAC (sugars l4 d7 l2 d1 l2, PS) | 291
31 | GTTACTGCCTTCTTAC (sugars ldllldddddddlddl, PS) | 461
32 | TGGCAAGCATCCT (sugars l1 d1 l2 d7 l2, PS) | 353
33 | GTTACTGCCTTCTTAC (sugars l2 d2 l1 d10 l1, PS) | 158
34 | GTTACTGCCTTCTTAC (sugars ldlddddddddlddll, PS) | 130
35 | GGCAAGCATCCTG (sugars l1 d1 l2 d6 l3, PS) | 495
36 | GGCAAGCATCCTG (sugars l1 d2 l1 d8 l1, PS) | 205
37 | GTTACTGCCTTCTTAC (sugars l2 d10 l1 d2 l1, PS) | 123
38 | GTTACTGCCTTCTTAC (sugars ldlldddddddlddll, PS) | 191
39 | GTTACTGCCTTCTTAC (sugars l5 d6 l1 d2 l2, PS) | 442
40 | CAAGCATCCTGTA (sugars l1 d9 l3, PS) | 135
41 | TGGCAAGCATCCT (sugars l2 d1 l1 d8 l1, PS) | 383
42 | TGGCAAGCATCCTGTA (sugars l1 d1 l2 d10 l2, PS) | 342
43 | CAAGCATCCTGTA (sugars l3 d9 l1, PS) | 237
44 | CAAGCATCCTGTA (sugars l4 d6 l3, PS) | 171
45 | TGGCAAGCATCCTGTA (sugars ldlddddddddddldl, PS) | 147
46 | GTTACTGCCTTCT (sugars l4 d6 l3, PS) | 356
47 | GTTACTGCCTTCT (sugars l1 d1 l1 d9 l1, PS) | 117
48 | ACTGCCTTCTTAC (sugars l2 d1 l1 d7 l2, PS) | 162
49 | TGGCAAGCATCCTGTA (sugars l2 d2 l1 d6 l5, PS) | 432
50 | TGGCAAGCATCCTGTA (sugars l4 d8 l2 d1 l1, PS) | 425
51 | GTTACTGCCTTCTTAC (sugars l2 d1 l1 d8 l4, PS) | 194
52 | TGGCAAGCATCCT (sugars l3 d8 l2, PS) | 217

Row | Sequence | caspase activation (% of PBS control)
53 | ACTGCCTTCTTAC (sugars l3 d9 l1, PS) | 332
54 | GTTACTGCCTTCTTAC (sugars l5 d6 l2 d1 l2, PS) | 488
55 | GTTACTGCCTTCTTAC (sugars l4 d8 l4, PS) | 272
56 | TGGCAAGCATCCTGTA (sugars llddlddddddldddl, PS) | 383
57 | TGGCAAGCATCCTGTA (sugars ldlddddddddldldl, PS) | 206
58 | GTTACTGCCTTCTTAC (sugars lddldddddddlddll, PS) | 129
59 | GTTACTGCCTTCTTAC (sugars l4 d7 l2 d2 l1, PS) | 264
60 | TGGCAAGCATCCTGTA (sugars l3 d1 l1 d6 l5, PS) | 536
61 | GTTACTGCCTTCTTAC (sugars lldllddddddllldl, PS) | 506
62 | TGGCAAGCATCCT (sugars l1 d2 l1 d8 l1, PS) | 178
63 | TGGCAAGCATCCT (sugars l4 d7 l2, PS) | 447
64 | GTTACTGCCTTCTTAC (sugars l3 d11 l2, PS) | 136
65 | GTTACTGCCTTCTTAC (sugars llldlddddddldldl, PS) | 316
66 | GTTACTGCCTTCTTAC (sugars llddlddddddlldll, PS) | 208
67 | TACTGCCTTCTTA (sugars l2 d8 l1 d1 l1, PS) | 223
68 | TGGCAAGCATCCTGTA (sugars llldlddddddddldl, PS) | 350
69 | TGGCAAGCATCCTGTA (sugars lldllddddddldddl, PS) | 385
70 | GTTACTGCCTTCTTAC (sugars ldldlddddddddldl, PS) | 201
71 | TGGCAAGCATCCTGTA (sugars ldlllddddddllddl, PS) | 495
72 | GTTACTGCCTTCTTAC (sugars l3 d1 l1 d7 l4, PS) | 324
73 | GTTACTGCCTTCTTAC (sugars ldddldddddddlldl, PS) | 245
74 | ACTGCCTTCTTAC (sugars l3 d8 l2, PS) | 339
75 | TGGCAAGCATCCTGTA (sugars l1 d1 l1 d8 l5, PS) | 417
76 | GTTACTGCCTTCTTAC (sugars llldldddddddldll, PS) | 274
77 | TTACTGCCTTCTT (sugars l4 d8 l1, PS) | 202
78 | TACTGCCTTCTTA (sugars l1 d2 l1 d6 l3, PS) | 246

Row | Sequence | caspase activation (% of PBS control)
79 | ACTGCCTTCTTAC (sugars l4 d7 l2, PS) | 406
80 | GTTACTGCCTTCTTAC (sugars l4 d11 l1, PS) | 159
81 | TGGCAAGCATCCTGTA (sugars l4 d7 l2 d1 l2, PS) | 572
82 | GTTACTGCCTTCTTAC (sugars l3 d9 l1 d2 l1, PS) | 185
83 | GTTACTGCCTTCTTAC (sugars lddllddddddldddl, PS) | 188
84 | TGGCAAGCATCCTGTA (sugars llldlddddddlldll, PS) | 458
85 | GTTACTGCCTTCT (sugars l1 d2 l1 d8 l1, PS) | 110
86 | ACTGCCTTCTTAC (sugars ldllddddddldl, PS) | 217
87 | TGGCAAGCATCCTGTA (sugars l1 d1 l3 d9 l2, PS) | 463
88 | TGGCAAGCATCCTGTA (sugars llddlddddddlddll, PS) | 455
89 | GGCAAGCATCCTG (sugars l1 d1 l1 d9 l1, PS) | 339
90 | ACTGCCTTCTTAC (sugars l4 d8 l1, PS) | 387
91 | GTTACTGCCTTCTTAC (sugars llldlddddddddldl, PS) | 271
92 | TGGCAAGCATCCTGTA (sugars lddlddddddddlldl, PS) | 392
93 | TGGCAAGCATCCTGTA (sugars l3 d8 l1 d2 l2, PS) | 297
94 | CAAGCATCCTGTA (sugars l2 d10 l1, PS) | 142
95 | TGGCAAGCATCCTGTA (sugars l4 d10 l2, PS) | 396
96 | TGGCAAGCATCCTGTA (sugars l2 d1 l1 d7 l5, PS) | 427
97 | TGGCAAGCATCCTGTA (sugars lldllddddddlldll, PS) | 493
98 | GTTACTGCCTTCTTAC (sugars l2 d1 l2 d6 l5, PS) | 474
99 | GTTACTGCCTTCTTAC (sugars llldldddddddlddl, PS) | 277
100 | TGGCAAGCATCCTGTA (sugars llddlddddddddldl, PS) | 215
101 | TGGCAAGCATCCTGTA (sugars l2 d10 l2 d1 l1, PS) | 366
